Measured values from ChEMBL document CHEMBL1151990, “3-Alkylpyridinium alkaloids from the Pacific sponge Haliclona sp” (J Nat Prod, 2009).
≈ marks a conversion by molar mass, not a printed value.

How the values were obtained:
WEHI-164 = assay: Cytotoxicity against mouse WEHI164 cells by rapid colorimetric assay; format: functional, cell-based
J774.A1 = assay: Cytotoxicity against mouse J774A1 cells by rapid colorimetric assay; format: cell-based
HEK293 = assay: Cytotoxicity against HEK293 cells by rapid colorimetric assay; format: cell-based; details: Homo sapiens

| SMILES | IC50 (WEHI-164) | IC50 (J774.A1) | IC50 (HEK293) |
| --- | --- | --- | --- |
| C1=C\Cc2ccc[n+](c2)CCCCCCCC/C=C\Cc2ccc[n+](c2)CCCCCCCC/C=C\Cc2ccc[n+](c2)CCCCCCCC/1 | > 20 µg/mL | > 20 µg/mL | > 20 µg/mL |
| C1=C\Cc2ccc[n+](c2)CCCCCCCC/C=C\Cc2ccc[n+](c2)CCCCCCCC/1 | > 20 µg/mL | > 20 µg/mL | > 20 µg/mL |
| Sc1ncnc2nc[nH]c12 [MERCAPTOPURINE ANHYDROUS] | 0.0025 µg/mL (≈ 0.0164 µM) | 0.0051 µg/mL (≈ 0.0335 µM) | 0.00071 µg/mL (≈ 0.00467 µM) |
